A short description of data set [1]: Critical micelle concentration (CMC), Tsuchiya and Saito method. In kind it is physicochemical. As to conditions: α,β anomer mixtures. The text has this:
The critical micelle concentrations as measured according to the Tsuchiya and Saito method, J. Biochem., 96 (1984), 1593, are set forth in Table 1 for various fatty acid chain alkyl-1-thio-α,β-glycosides prepared according to the present invention.

A further data set concerns cytochrome P-45017α. Kind of data set: Extraction of cytochrome P-45017α from bovine suprarenal cortex microsomes, and inactivation of the protein. As to conditions: 30 mins. at 4° C, proteins 4 mg/ml, detergent 15 mg/ml. On the set-up: unit not given here. The text has this: (§1) These CMC values allow the glycosides to be used as detergents in membrane protein extraction. For example, but without implying any limitation with regard to other uses, several alkyl-1-thio-α,β-glycosides prepared in the manner of the invention were used to extract membrane proteins from the bovine suprarenal cortex. The suprarenal cortex cells contain enzyme systems which cause steroidogenesis. These are membrane enzymes in the mitochondrions (cytochromes P-45011β and P-450scc) and in the microsomes (cytochrome P-45017α). In conventionally used methods, they are optimally extracted in the presence of sodium cholate. However, the ionic nature of the sodium cholate detergent results in a greater denaturation rate of the enzymatic proteins as the contact time between the proteins and the sodium cholate is prolonged. Accordingly, and in particular, the sodium cholate detergent presents difficulties when used to reconstitute the lipid environment of these proteins.
The mitochondrions of the bovine suprarenal cortex are prepared in the manner of M. Satre & P. V. Vignais (Biochemistry, 13 (1974) 2201). The membrane proteins are extracted by incubation in a suitable buffer containing 50 mM potassium phosphate, pH=7.4, 1 mM dithiothreitol, 1 mM EDTA, and 10 μM desoxycorticosterone. The respective concentrations of proteins and detergents are 20 and 15 mg/ml. Following incubation, the medium is centrifuged (100,000 g, 45 mins.) and the cytochromes P-450 are metered into the supernatant by recording the differential spectrum for the reduced form Fe^2+ and the complex Fe^2+ CO. Denaturation is estimated by the absorption difference measured at 450 nm (native form) and 420 nm (denatured form).
The extraction of cytochrome P-45017α involved obtaining the bovine suprarenal cortex microsomes in the form of a button after 45 mins. centrifugation at 100,000 g of the post-mitochondrial supernatant. The membrane proteins are extracted as indicated above in reference to Table 2 for 30 mins. at 4° C. The respective concentrations of the proteins and detergents are 4 and 15 mg/ml. Following centrifugation, the activity of cytochrome P-45017α is measured in the supernatant by checking the transformation of (^3 H)-pregnenolone into (^3 H)-17α-hydroxy-pregnenolone.

In data set [2] the test system is cytochromes P-45011β and P-450scc. The data set is described as follows: Extraction of cytochromes P-45011β and P-450scc from mitochondrions of the bovine suprarenal cortex, and inactivation of the proteins. As to conditions: proteins 20 mg/ml, detergent 15 mg/ml; for Extraction rate [after 1 h] / Inactivation rate [after 1 h]: pH 7.4, after 1 h; for Extraction rate [after 2 h] / Inactivation rate [after 2 h]: pH 7.4, after 2 h.
Description: as §1, with “For” for “These CMC values allow the glycosides to be used as detergents in membrane protein extraction. For”, “These are membrane enzymes in the mitochondrions (cytochromes P-45011β and P-450scc) and in the microsomes (cytochrome P-45017α).” left out
The membrane proteins are extracted by incubation in a suitable buffer containing 50 mM potassium phosphate, pH=7.4, 1 mM dithiothreitol, 1 mM EDTA, and 10 μM desoxycorticosterone. The respective concentrations of proteins and detergents are 20 and 15 mg/ml. Following incubation, the medium is centrifuged (100,000 g, 45 mins.) and the cytochromes P-450 are metered into the supernatant by recording the differential spectrum for the reduced form Fe^2+ and the complex Fe^2+ CO. Denaturation is estimated by the absorption difference measured at 450 nm (native form) and 420 nm (denatured form).

For data set [3] the following is noted: Chem. Pharm. Bull., 33 (1985), 503-8; cited from earlier work.

The structures appear in SMILES notation.

Regarding `CCCCCCCSC1O[C@H](CO)[C@@H](O)[C@H](O)[C@H]1O` (stereo partly drawn) [1-heptyl-1-thio-α,β-D-glucopyranoside], the “Critical micelle concentration (CMC)” value in data set [1] is 4.1 mM. In the data set on cytochrome P-45017α, the Extraction rate was 85 and the Inactivation rate is on record as 0. In data set [2], this molecule gave an Extraction rate [after 1 h] of 0%, an Inactivation rate [after 1 h] of 48%, an Extraction rate [after 2 h] of 0% and an Inactivation rate [after 2 h] of 47%.

For the molecule `CCCCCCCSC1O[C@H](CO)[C@@H](O[C@@H]2O[C@H](CO)[C@H](O)[C@H](O)[C@H]2O)[C@H](O)[C@H]1O` (stereo partly drawn) [1-heptyl-1-thio-α,β-lactoside], in the data set with cytochrome P-45017α, the Extraction rate stood at 57 and the Inactivation rate was determined as 0. Besides, in data set [2], the Extraction rate [after 1 h] came to 0%, the Inactivation rate [after 1 h] was found to be 30%, the Extraction rate [after 2 h] was 0% and the Inactivation rate [after 2 h] was 50%.

Regarding `CCCCCCCCSC1O[C@H](CO)[C@@H](O)[C@H](O)[C@H]1O` (stereo partly drawn) [1-octyl-1-thio-α,β- -- D-glucopyranoside, 1-octyl-1-thio-α,β-D-glucopyranoside], the “Critical micelle concentration (CMC)” value in data set [1] is 3.0 mM. In the data set with cytochrome P-45017α, this molecule displayed an Extraction rate of 93 and an Inactivation rate of 0. Further, in data set [2], the Extraction rate [after 1 h] worked out at 43%, the Inactivation rate [after 1 h] worked out at 60%, the Extraction rate [after 2 h] stood at 49% and the Inactivation rate [after 2 h] came out at 72%.

For `CCCCCCCCSC1O[C@H](CO)[C@@H](O[C@@H]2O[C@H](CO)[C@@H](O)[C@H](O)[C@H]2O)[C@H](O)[C@H]1O` (stereo partly drawn) [1-octyl-1-thio-α,β-cellobioside], the “Critical micelle concentration (CMC)” value in data set [1] worked out at 0.2 mM. In the data set with cytochrome P-45017α, this molecule returned an Extraction rate of 72 and an Inactivation rate of 0. In data set [2], this molecule gave an Extraction rate [after 1 h] of 0%, an Inactivation rate [after 1 h] of 55%, an Extraction rate [after 2 h] of 0% and an Inactivation rate [after 2 h] of 20%.

Consider `CCCCCCCCSC1O[C@H](CO)[C@@H](O[C@@H]2O[C@H](CO)[C@H](O)[C@H](O)[C@H]2O)[C@H](O)[C@H]1O` (stereo partly drawn) [1-octyl-1-thio-α,β-lactoside], for which, in data set [1], the “Critical micelle concentration (CMC)” value is recorded as 0.2 mM. In the data set with cytochrome P-45017α, the Extraction rate worked out at 65 and the Inactivation rate amounted to 57. In data set [2], this molecule showed an Extraction rate [after 1 h] of 0%, an Inactivation rate [after 1 h] of 55%, an Extraction rate [after 2 h] of 0% and an Inactivation rate [after 2 h] of 62%.

Take `CCCCCCCCSC1O[C@H](CO)[C@@H](O[C@H]2O[C@H](CO)[C@@H](O)[C@H](O)[C@H]2O)[C@H](O)[C@H]1O` (stereo partly drawn) [1-octyl-1-thio-α,β-maltoside]: in data set [1], the “Critical micelle concentration (CMC)” value is on record as 0.2 mM. In the data set on cytochrome P-45017α, this molecule showed an Extraction rate of 58 and an Inactivation rate of 0. In data set [2], this molecule yielded an Extraction rate [after 1 h] of 0%, an Inactivation rate [after 1 h] of 48%, an Extraction rate [after 2 h] of 21% and an Inactivation rate [after 2 h] of 94%.

Regarding `CCCCCCCCS[C@@H]1O[C@H](CO)[C@@H](O)[C@H](O)[C@H]1O` [1-octyl-1-thio-β- -- D-glucopyranoside, 1-octyl-1-thio-β-D-glucopyranoside, reference compound], in the data set on cytochrome P-45017α, the Extraction rate was 31 and the Inactivation rate came out at 0. In data set [2], this molecule had an Extraction rate [after 1 h] of 0%, an Inactivation rate [after 1 h] of 18%, an Extraction rate [after 2 h] of 48% and an Inactivation rate [after 2 h] of 91%. Besides, in data set [3], the “CMC of the prior art mentioned in the literature” value was 9.0 mM.

With `CCCCCCCCO[C@@H]1O[C@H](CO)[C@@H](O)[C@H](O)[C@H]1O` [1-octyl-β-D-glucopyranoside, reference compound], in the data set on cytochrome P-45017α, the Extraction rate stood at 89 and the Inactivation rate came to 20. In data set [2], this molecule showed an Extraction rate [after 1 h] of 0%, an Inactivation rate [after 1 h] of 100%, an Extraction rate [after 2 h] of 0% and an Inactivation rate [after 2 h] of 100%.

`C[C@H](CCC(=O)O)[C@H]1CC[C@H]2[C@@H]3[C@H](O)C[C@@H]4C[C@H](O)CC[C@]4(C)[C@H]3C[C@H](O)[C@]12C` [sodium cholate, reference compound]: in data set [2], the Extraction rate [after 1 h] is 0% and the Inactivation rate [after 1 h] was determined as 94%.

The values above are taken from US5118804A, “Process for preparing alkyl-1-thioglycosides and alkyl-glycosides, anomer mixtures thereof” (Beghin-Say, SA, priority 1989, dated 1992).
